Reference: patent publication US20240254118A1, “PRMT5 INHIBITORS AND USES THEREOF” (Gilead Sciences, Inc., priority 2022, published 2024)

Assays:
[1] = test system: HCT116 MTAP-deleted cells; experiment: Cell viability assay (CellTiter-Glo, 7 days), HCT116 MTAP-deleted; conditions: Homo sapiens, HCT-116, 168 h
[2] = test system: SDMA signal (PRMT5 inhibition) in HCT116 MTAP-deleted cells; experiment: Symmetric di-methyl arginine image-based high content screen assay (SDMA assay), HCT116 MTAP-deleted; assay type: cell-based; conditions: SDMA assay; for EC50: Homo sapiens, HCT-116, 72 h, 3 days of treatment, cell line not given, taken as HCT116 MTAP-deleted, read-out: EC50 (SDMA assay); for EC50 selectivity (SDMA assay): taken as HCT116 WT versus MTAP-deleted
Summary of the method: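 HCT116 MTAP-deleted cells treated with compound until Day 3, then formalin-fixed, permeabilized and immunostained for SDMA, with DAPI nuclear counterstain. Imaged by high-content microscopy; SDMA read-out is mean Alexa 488 intensity per DAPI-defined cell, reflecting PRMT5 inhibition.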

EC50 [2] [nM] | EC50 selectivity (SDMA assay) [2] | SMILES | CC50 [1] [nM]
< 1 | 156 | CN(C(=O)C(C)(C)C)N(Cc1ccc(C(F)(F)F)cn1)C(=O)c1ccc2nc(N)c3cnn(C)c3c2c1 [Example 119, 4-amino-N′,1-dimethyl-N′-pivaloyl-N-((5-(trifluoromethyl)pyridin-2-yl)methyl)-1H-pyrazolo[4,3-c]quinoline-8-carbohydrazide] | < 100
< 1 | 542 | CC(C)C(=O)N(C)N(Cc1ccc(C(F)(F)F)cn1)C(=O)c1ccc2nc(N)c3cnn(C)c3c2c1 [Example 120, 4-amino-N′-isobutyryl-N′,1-dimethyl-N-((5-(trifluoromethyl)pyridin-2-yl)methyl)-1H-pyrazolo[4,3-c]quinoline-8-carbohydrazide] | < 100
< 1 | 106 | CN(C(=O)C(C)(C)F)N(Cc1ccc(C(F)(F)F)cn1)C(=O)c1ccc2nc(N)c3cnn(C)c3c2c1 [Example 121, 4-amino-N′-(2-fluoro-2-methylpropanoyl)-N′,1-dimethyl-N-((5-(trifluoromethyl)pyridin-2-yl)methyl)-1H-pyrazolo[4,3-c]quinoline-8-carbohydrazide] | < 100
< 1 | 261 | CN(C(=O)C1CC1)N(Cc1ccc(F)cc1F)C(=O)c1ccc2nc(N)c3cnn(C)c3c2c1 [Example 122, 4-amino-N′-(cyclopropanecarbonyl)-N-(2,4-difluorobenzyl)-N′,1-dimethyl-1H-pyrazolo[4,3-c]quinoline-8-carbohydrazide] | < 100
< 1 | 39 | Cn1ncc2c(N)nc3ccc(C(=O)N(Cc4cn5cc(Cl)ccc5n4)N4CCCC4=O)cc3c21 [Example 123, 4-Amino-N-[(6-chloroimidazo[1,2-a]pyridin-2-yl)methyl]-1-methyl-N-(2-oxopyrrolidin-1-yl)pyrazolo[4,3-c]quinoline-8-carboxamide] | < 100
1 to 5 | 60 | CN1CCN(N(Cc2cn3ccc(Cl)cc3n2)C(=O)c2ccc3nc(N)c4cnn(C)c4c3c2)C1=O [Example 125, 4-Amino-N-[(7-chloroimidazo[1,2-a]pyridin-2-yl)methyl]-1-methyl-N-(3-methyl-2-oxo-imidazolidin-1-yl)pyrazolo[4,3-c]quinoline-8-carboxamide] | < 100
< 1 | 45 | CN(C(=O)N1CCC1)N(Cc1ccc(C(F)(F)F)cn1)C(=O)c1ccc2nc(N)c3cnn(C)c3c2c1 [Example 126, 4-amino-N′-(azetidine-1-carbonyl)-N′,1-dimethyl-N-((5-(trifluoromethyl)pyridin-2-yl)methyl)-1H-pyrazolo[4,3-c]quinoline-8-carbohydrazide] | < 100
1 to 5 | 228 | CN(C(=O)N1CC2CC2C1)N(Cc1ccc(C(F)(F)F)cn1)C(=O)c1ccc2nc(N)c3cnn(C)c3c2c1 (stereo not drawn) [Example 127, 4-amino-N′-(3-azabicyclo[3.1.0]hexane-3-carbonyl)-N′,1-dimethyl-N-((5-(trifluoromethyl)pyridin-2-yl)methyl)-1H-pyrazolo[4,3-c]quinoline-8-carbohydrazide] | < 100
< 1 | 131 | CN(C(=O)N1CC2CC1C2)N(Cc1ccc(C(F)(F)F)cn1)C(=O)c1ccc2nc(N)c3cnn(C)c3c2c1 [Example 128, 4-amino-N′-(2-azabicyclo[2.1.1]hexane-2-carbonyl)-N′,1-dimethyl-N-((5-(trifluoromethyl)pyridin-2-yl)methyl)-1H-pyrazolo[4,3-c]quinoline-8-carbohydrazide] | < 100
< 1 | 11 | CN(c1ncccn1)N(Cc1cn2cc(Cl)ccc2n1)C(=O)c1ccc2nc(N)c3cnn(C)c3c2c1 [Example 129, 4-amino-N-[(6-chloroimidazo[1,2-a]pyridin-2-yl)methyl]-N′,1-dimethyl-N′-pyrimidin-2-yl-pyrazolo[4,3-c]quinoline-8-carbohydrazide] | < 100
1 to 5 | 34 | Cn1cc(-c2ccc(CN(C(=O)c3ccc4nc(N)c5cnn(C)c5c4c3)N3CCCCC3=O)nc2)cn1 [Example 130, 4-amino-1-methyl-N-((5-(1-methyl-1H-pyrazol-4-yl)pyridin-2-yl)methyl)-N-(2-oxopiperidin-1-yl)-1H-pyrazolo[4,3-c]quinoline-8-carboxamide] | < 100
> 5 | 279 | Nc1nc2cc(F)c(C(=O)N3CCCCN3c3ccc(C(F)(F)F)cn3)cc2c2cscc12 [Example 131, (4-amino-7-fluoro-thieno[3,4-c]quinolin-8-yl)-[2-[5-(trifluoromethyl)-2-pyridyl]hexahydropyridazin-1-yl]methanone] | > 1000
> 5 | 3193 | Nc1nc2cc(F)c(C(=O)N3CCCN3c3ccc(C(F)(F)F)cn3)cc2c2cscc12 [Example 132, (4-amino-7-fluoro-thieno[3,4-c]quinolin-8-yl)-[2-[5-(trifluoromethyl)-2-pyridyl]pyrazolidin-1-yl]methanone] | > 1000
< 1 | 92 | Cn1ncc2c(N)nc3ccc(C(=O)N(Cc4ccc(C(F)(F)F)cn4)N4CCOC4=O)cc3c21 [Example 133, 4-amino-1-methyl-N-(2-oxooxazolidin-3-yl)-N-((5-(trifluoromethyl)pyridin-2-yl)methyl)-1H-pyrazolo[4,3-c]quinoline-8-carboxamide] | < 100
1 to 5 | 18 | CN1CCN(N(Cc2ccc(C(F)(F)F)cn2)C(=O)c2cc3c(cc2F)nc(N)c2cnn(C)c23)C1=O [Example 134, 4-amino-7-fluoro-1-methyl-N-(3-methyl-2-oxoimidazolidin-1-yl)-N-((5-(trifluoromethyl)pyridin-2-yl)methyl)-1H-pyrazolo[4,3-c]quinoline-8-carboxamide] | < 100
1 to 5 | 495 | Cn1ncc2c(N)nc3ccc(C(=O)N(Cc4nc(C(F)(F)F)cs4)N4CCCOC4=O)cc3c21 [Example 135, 4-amino-1-methyl-N-(2-oxo-1,3-oxazinan-3-yl)-N-((4-(trifluoromethyl)thiazol-2-yl)methyl)-1H-pyrazolo[4,3-c]quinoline-8-carboxamide] | 100 to 1000
1 to 5 | 724 | Cn1ncc2c(N)nc3ccc(C(=O)N(Cc4csc(C(F)(F)F)n4)N4CCCOC4=O)cc3c21 [Example 136, 4-amino-1-methyl-N-(2-oxo-1,3-oxazinan-3-yl)-N-((2-(trifluoromethyl)thiazol-4-yl)methyl)-1H-pyrazolo[4,3-c]quinoline-8-carboxamide] | 100 to 1000
1 to 5 | 159 | CN(C(=O)OC(C)(C)C)N(Cc1ccc(C(F)(F)F)cn1)C(=O)c1ccc2nc(N)c3cnn(C)c3c2c1 [Example 137, tert-butyl N-[(4-amino-1-methyl-pyrazolo[4,3-c]quinoline-8-carbonyl)-[[5-(trifluoromethyl)-2-pyridyl]methyl]amino]-N-methyl-carbamate] | < 100
> 5 | 174 | Cn1ncc2c(N)nc3ccc(C(=O)N(Cc4ccc(C(F)(F)F)cn4)N4CCS(=O)(=O)CC4)cc3c21 [Example 138, 4-amino-N-(1,1-dioxo-1,4-thiazinan-4-yl)-1-methyl-N-[[5-(trifluoromethyl)-2-pyridyl]methyl]pyrazolo[4,3-c]quinoline-8-carboxamide] | > 1000
> 5 | 20 | Cn1ncc2c(N)nc3ccc(C(=O)N(Cc4cn5ccccc5n4)N4Cc5ccccc5C4=O)cc3c21 [Example 139, 4-amino-N-(imidazo[1,2-a]pyridin-2-ylmethyl)-1-methyl-N-(1-oxoisoindolin-2-yl)pyrazolo[4,3-c]quinoline-8-carboxamide] | < 100
< 1 | 456 | CN(C(=O)C12CC(C1)C2)N(Cc1ccc(Cl)cn1)C(=O)c1ccc2nc(N)c3cnn(C)c3c2c1 [Example 140, 4-amino-N′-(bicyclo[1.1.1]pentane-1-carbonyl)-N-((5-chloropyridin-2-yl)methyl)-N′,1-dimethyl-1H-pyrazolo[4,3-c]quinoline-8-carbohydrazide] | < 100
1 to 5 | 58 | Cn1ncc2c(N)nc3cc(Cl)c(C(=O)N(Cc4ccc(C(F)(F)F)cn4)N4CCCC4=O)cc3c21 [Example 141, 4-amino-7-chloro-1-methyl-N-(2-oxopyrrolidin-1-yl)-N-[[5-(trifluoromethyl)-2-pyridyl]methyl]pyrazolo[4,3-c]quinoline-8-carboxamide] | < 100
< 1 | 32 | Cn1ncc2c(N)nc3cc(F)c(C(=O)N(Cc4ccc(C(F)(F)F)cn4)N4CCOCC4)cc3c21 [Example 142, 4-amino-7-fluoro-1-methyl-N-morpholino-N-((5-(trifluoromethyl)pyridin-2-yl)methyl)-1H-pyrazolo[4,3-c]quinoline-8-carboxamide] | < 100
1 to 5 | 67 | Cn1ncc2c(N)nc3cc(Cl)c(C(=O)N(Cc4ccc(C(F)(F)F)cn4)N4CCCOC4=O)cc3c21 [Example 143, 4-amino-7-chloro-1-methyl-N-(2-oxo-1,3-oxazinan-3-yl)-N-[[5-(trifluoromethyl)-2-pyridyl]methyl]pyrazolo[4,3-c]quinoline-8-carboxamide] | < 100
